ChEMBL document CHEMBL1201862, “PubChem BioAssay data set” (2004)
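Interpolation was linear, between the two tested concentrations surrounding the appropriate level; five concentrations were tested over 48 hours in 96-well plates. The concentration for 50% growth inhibition is given as GI50.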 Activity calls are given as the source filed them. Rule as the data show it: active = GI50 up to about 1.1 µM and inactive = higher.

Legend:
Test in all cases: growth of human tumour cells (NCI), 48 h
SNB-75 = tested on: SNB-75
MCF7 = tested on: MCF7
A498 = tested on: A498
A549 = tested on: A549
MDA-MB-435 = tested on: MDA-MB-435
K562 = tested on: K562
CCRF-CEM = tested on: CCRF-CEM
LOX IMVI = tested on: LOX IMVI
HCC 2998 = tested on: HCC 2998
UACC-257 = tested on: UACC-257
TK-10 = tested on: TK-10
SK-MEL-28 = tested on: SK-MEL-28
T47D = tested on: T47D
MDA-MB-231 = tested on: MDA-MB-231
Hs-578T = tested on: Hs-578T
CAKI-1 = tested on: CAKI-1
SF-268 = tested on: SF-268
ACHN = tested on: ACHN
NCI-H226 = tested on: NCI-H226
RPMI-8226 = tested on: RPMI-8226

Structure (SMILES) | GI50 (SNB-75) | GI50 (MCF7) | GI50 (A498) | GI50 (A549) | GI50 (MDA-MB-435) | GI50 (K562) | GI50 (CCRF-CEM) | GI50 (LOX IMVI) | GI50 (HCC 2998) | GI50 (UACC-257) | GI50 (TK-10) | GI50 (SK-MEL-28) | GI50 (T47D) | GI50 (MDA-MB-231) | GI50 (Hs-578T) | GI50 (CAKI-1) | GI50 (SF-268) | GI50 (ACHN) | GI50 (NCI-H226) | GI50 (RPMI-8226)
COc1cc2oc(-c3ccc4c(c3)OCO4)c(OC)c(=O)c2c(O)c1OC | 28.6 µM (inactive) | > 50 µM (inactive) | > 50 µM (inactive) | > 50 µM (inactive) | 26.9 µM (inactive) | 27.9 µM (inactive) | > 50 µM (inactive) | > 50 µM (inactive) | > 50 µM (inactive) | > 50 µM (inactive) | > 50 µM (inactive) | > 50 µM (inactive) | > 50 µM (inactive) | 45.4 µM (inactive) | > 50 µM (inactive) | > 50 µM (inactive) | 29.4 µM (inactive) | > 50 µM (inactive) | > 50 µM (inactive) | –
O=C(O)C(NCc1ccccc1)C(NCc1ccccc1)C(=O)O (centres undefined) | > 100 µM (inactive) | > 100 µM (inactive) | > 100 µM (inactive) | > 100 µM (inactive) | > 100 µM (inactive) | > 100 µM (inactive) | > 100 µM (inactive) | > 100 µM (inactive) | > 100 µM (inactive) | > 100 µM (inactive) | > 100 µM (inactive) | > 100 µM (inactive) | > 100 µM (inactive) | > 100 µM (inactive) | > 100 µM (inactive) | > 100 µM (inactive) | > 100 µM (inactive) | > 100 µM (inactive) | > 100 µM (inactive) | > 100 µM (inactive)
CC1(/C=C/CCSc2ccccc2)CC(=O)C2CC1C2(C)C (centres undefined) | 11.2 µM (inactive) | 22.6 µM (inactive) | 44.7 µM (inactive) | 14.8 µM (inactive) | 19.3 µM (inactive) | 5.79 µM (inactive) | 6.49 µM (inactive) | 14.8 µM (inactive) | 12.5 µM (inactive) | 14.7 µM (inactive) | 14.9 µM (inactive) | 25.1 µM (inactive) | 11.2 µM (inactive) | 37.4 µM (inactive) | 22.9 µM (inactive) | 26.6 µM (inactive) | 28.5 µM (inactive) | 19 µM (inactive) | 24.8 µM (inactive) | 3.79 µM (inactive)
Cn1c2ccccc2c(=O)c2c(O)cc3c(c21)C=CC1(CCCCC1)O3 | > 10 µM (inactive) | 9.1 µM (inactive) | > 10 µM (inactive) | > 10 µM (inactive) | > 10 µM (inactive) | 4.5 µM (inactive) | > 10 µM (inactive) | > 10 µM (inactive) | > 10 µM (inactive) | > 10 µM (inactive) | > 10 µM (inactive) | > 10 µM (inactive) | > 10 µM (inactive) | > 10 µM (inactive) | 9.06 µM (inactive) | > 10 µM (inactive) | > 10 µM (inactive) | > 10 µM (inactive) | 5.89 µM (inactive) | > 10 µM (inactive)
C#CCC(O)c1ccc(OC)c(OCc2ccccc2)c1 (centres undefined) | 27 µM (inactive) | > 100 µM (inactive) | > 100 µM (inactive) | > 100 µM (inactive) | > 100 µM (inactive) | 61.9 µM (inactive) | 26.7 µM (inactive) | > 100 µM (inactive) | > 100 µM (inactive) | 52.1 µM (inactive) | > 100 µM (inactive) | > 100 µM (inactive) | > 100 µM (inactive) | 59.2 µM (inactive) | > 100 µM (inactive) | > 100 µM (inactive) | > 100 µM (inactive) | > 100 µM (inactive) | 32.8 µM (inactive) | > 100 µM (inactive)
C=C1C(=O)O[C@@H]2/C=C(\C)CC/C=C(/COC(C)=O)C[C@@H](OC(C)=O)[C@@H]12 | 50.1 µM (inactive) | 3.71 µM (inactive) | 19 µM (inactive) | 37.4 µM (inactive) | 14.2 µM (inactive) | 3.21 µM (inactive) | 0.718 µM (active) | 5.19 µM (inactive) | 16.5 µM (inactive) | 13.4 µM (inactive) | 7.83 µM (inactive) | 8.99 µM (inactive) | 11.4 µM (inactive) | 14.9 µM (inactive) | 10.4 µM (inactive) | 7.48 µM (inactive) | 11.3 µM (inactive) | 4.38 µM (inactive) | 19.8 µM (inactive) | 3.39 µM (inactive)
O=C(CBr)NCCc1c[nH]c2ccccc12 | 1.65 µM (inactive) | 2 µM (inactive) | 19 µM (inactive) | 2.14 µM (inactive) | 1.52 µM (inactive) | 1.44 µM (inactive) | 0.174 µM (active) | 0.482 µM (active) | 9.95 µM (inactive) | 3.01 µM (inactive) | 1.86 µM (inactive) | 3.49 µM (inactive) | 1.74 µM (inactive) | 2.23 µM (inactive) | 5.14 µM (inactive) | 0.776 µM (active) | 2.16 µM (inactive) | 1.73 µM (inactive) | 0.655 µM (active) | 1.97 µM (inactive)
